Source: patent US11547697B2, “Heterocyclic compounds and uses thereof” (MILLENNIUM PHARMACEUTICALS, INC., priority 2009, dated 2023)
Like-named read-outs stand apart in the source and are kept apart here.

Assays:
[1] = biological target: p110α/p85α (Homo sapiens (Human), UniProt P42336); experiment: PI 3-Kinase (human) HTRF assay, p110α/p85α; type: biochemical
[2] = biological target: p110δ/p85α (Homo sapiens (Human), UniProt O00329); experiment: PI 3-Kinase (human) HTRF assay, p110δ/p85α; type: biochemical
Method: An exemplary system is PI 3-Kinase (human) HTRF™ Assay from Upstate. […] Briefly, the assay is a time resolved FRET assay that indirectly measures PIP3 product formed by the activity of a PI3-K. The kinase reaction is performed in a microtitre plate (e.g., a 384 well microtitre plate). The total reaction volume is approximately 20 ul per well. In the first step, each well receives 2 ul of test compound in 20% dimethylsulphoxide resulting in a 2% DMSO final concentration. Next, approximately 14.5 ul of a kinase/PIP2 mixture (diluted in 1× reaction buffer) is added per well for a final concentration of 0.25-0.3 ug/ml kinase and 10 μM PIP2. The plate is sealed and incubated for 15 minutes at room temperature. To start the reaction, 3.5 ul of ATP (diluted in 1× reaction buffer) is added per well for a final concentration of 10 μM ATP. The plate is sealed and incubated for 1 hour at room temperature. The reaction is stopped by adding 5 ul of Stop Solution per well and then 5 ul of Detection Mix is added per well. The plate is sealed, incubated for 1 hour at room temperature, and then read on an appropriate plate reader. Data is analyzed and IC50s are generated using GraphPad Prism 5. […] For PI3K α, β, δ, and γ, the nM concentration of inhibitor to reach IC50 is provided.

[3] = biological target: p110γ (Homo sapiens (Human), UniProt P48736); experiment: PI 3-Kinase (human) HTRF assay, p110γ; type: biochemical
[4] = biological target: recombinant mTOR (Homo sapiens (Human), UniProt P42345); experiment: mTOR inhibition assay (radiometric or LanthaScreen TR-FRET); type: biochemical; details: read-out: MTORC IC50
Method: The compounds described herein can be tested against recombinant mTOR (Invitrogen) in an assay containing 50 mM HEPES, pH 7.5, 1 mM EGTA, 10 mM MgCl2, 2.5 mM, 0.01% Tween, 10 pM ATP (2.5 μCi of μ-32P-ATP), and 3 μg/mL BSA. R^at recombinant PHAS-1/4EBP1 (Calbiochem; 2 mg/mL) is used as a substrate. Reactions are terminated by spotting onto nitrocellulose, which is washed with 1M NaCl/1% phosphoric acid (approximately 6 times, 5-10 minutes each). Sheets are dried and the transferred radioactivity quantitated by phosphorimaging.
For instance, one can use Invitrogen's LanthaScreen™ Kinase assay to test the inhibitors of mTOR disclosed herein. This assay is a time resolved FRET platform that measures the phosphorylation of GFP labeled 4EBP1 by mTOR kinase. The kinase reaction is performed in a white 384 well microtitre plate. The total reaction volume is 20 ul per well and the reaction buffer composition is 50 mM HEPES pH7.5, 0.01% Polysorbate 20, 1 mM EGTA, 10 mM MnCl2, and 2 mM DTT. In the first step, each well receives 2 ul of test compound in 20% dimethylsulphoxide resulting in a 2% DMSO final concentration. Next, 8 ul of mTOR diluted in reaction buffer is added per well for a 60 ng/ml final concentration. To start the reaction, 10 ul of an ATP/GFP-4EBP1 mixture (diluted in reaction buffer) is added per well for a final concentration of 10 μM ATP and 0.5 μM GFP-4EBP1. The plate is sealed and incubated for 1 hour at room temperature. […] The plate is sealed, incubated for 1 hour at room temperature, and then read on a plate reader set up for LanthaScreen™ TR-FRET. Data is analyzed and IC50s are generated using GraphPad Prism 5.

[5] = biological target: p110β/p85α (Homo sapiens (Human), UniProt P42338); experiment: PI 3-Kinase (human) HTRF assay, p110β/p85α; type: biochemical
[6] = test system: tumor cells with a PI3Kα mutation (e.g., MDA-MB-361 and T47D); experiment: Proliferation of tumor cells with PI3Kα mutation; type: cell-based; details: Homo sapiens, PC3; read-out: PC3 proliferation In Vitro IC50
[7] = in vitro, read-out: PI3K α IC50
[8] = in vitro, read-out: PI3K δ IC50
[9] = in vitro, read-out: PI3K γ IC50
[10] = in vitro, read-out: PI3K β IC50

p110γ, sequence (P48736 whole entry): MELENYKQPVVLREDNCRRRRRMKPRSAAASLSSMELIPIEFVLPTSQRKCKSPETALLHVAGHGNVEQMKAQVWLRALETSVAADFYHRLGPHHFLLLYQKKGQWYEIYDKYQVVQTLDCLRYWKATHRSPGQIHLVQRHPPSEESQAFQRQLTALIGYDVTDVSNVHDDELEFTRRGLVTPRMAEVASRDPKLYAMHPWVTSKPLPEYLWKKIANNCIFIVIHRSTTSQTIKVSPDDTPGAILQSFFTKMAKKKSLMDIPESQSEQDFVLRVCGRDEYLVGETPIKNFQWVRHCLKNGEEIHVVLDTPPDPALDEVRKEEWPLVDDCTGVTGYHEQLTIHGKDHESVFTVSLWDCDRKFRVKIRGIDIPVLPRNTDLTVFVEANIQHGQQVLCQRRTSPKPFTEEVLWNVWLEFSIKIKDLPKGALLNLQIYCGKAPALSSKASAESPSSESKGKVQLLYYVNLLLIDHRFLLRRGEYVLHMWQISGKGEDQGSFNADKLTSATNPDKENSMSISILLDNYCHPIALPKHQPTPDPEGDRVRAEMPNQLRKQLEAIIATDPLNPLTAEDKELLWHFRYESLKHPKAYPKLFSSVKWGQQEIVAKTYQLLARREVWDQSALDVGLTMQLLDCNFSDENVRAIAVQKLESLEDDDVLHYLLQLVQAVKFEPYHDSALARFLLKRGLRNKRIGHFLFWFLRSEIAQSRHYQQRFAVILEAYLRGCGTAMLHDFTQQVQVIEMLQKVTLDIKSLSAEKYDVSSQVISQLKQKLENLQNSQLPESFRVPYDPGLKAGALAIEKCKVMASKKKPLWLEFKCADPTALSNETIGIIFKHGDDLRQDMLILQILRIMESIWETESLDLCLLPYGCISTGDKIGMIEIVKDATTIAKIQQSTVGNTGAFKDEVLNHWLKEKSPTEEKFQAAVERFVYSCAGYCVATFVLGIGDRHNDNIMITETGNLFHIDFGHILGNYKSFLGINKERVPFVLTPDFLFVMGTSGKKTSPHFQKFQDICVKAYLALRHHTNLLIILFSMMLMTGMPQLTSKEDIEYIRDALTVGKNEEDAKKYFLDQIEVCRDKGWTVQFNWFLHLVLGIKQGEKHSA
p110β/p85α, sequence (P42338 whole entry): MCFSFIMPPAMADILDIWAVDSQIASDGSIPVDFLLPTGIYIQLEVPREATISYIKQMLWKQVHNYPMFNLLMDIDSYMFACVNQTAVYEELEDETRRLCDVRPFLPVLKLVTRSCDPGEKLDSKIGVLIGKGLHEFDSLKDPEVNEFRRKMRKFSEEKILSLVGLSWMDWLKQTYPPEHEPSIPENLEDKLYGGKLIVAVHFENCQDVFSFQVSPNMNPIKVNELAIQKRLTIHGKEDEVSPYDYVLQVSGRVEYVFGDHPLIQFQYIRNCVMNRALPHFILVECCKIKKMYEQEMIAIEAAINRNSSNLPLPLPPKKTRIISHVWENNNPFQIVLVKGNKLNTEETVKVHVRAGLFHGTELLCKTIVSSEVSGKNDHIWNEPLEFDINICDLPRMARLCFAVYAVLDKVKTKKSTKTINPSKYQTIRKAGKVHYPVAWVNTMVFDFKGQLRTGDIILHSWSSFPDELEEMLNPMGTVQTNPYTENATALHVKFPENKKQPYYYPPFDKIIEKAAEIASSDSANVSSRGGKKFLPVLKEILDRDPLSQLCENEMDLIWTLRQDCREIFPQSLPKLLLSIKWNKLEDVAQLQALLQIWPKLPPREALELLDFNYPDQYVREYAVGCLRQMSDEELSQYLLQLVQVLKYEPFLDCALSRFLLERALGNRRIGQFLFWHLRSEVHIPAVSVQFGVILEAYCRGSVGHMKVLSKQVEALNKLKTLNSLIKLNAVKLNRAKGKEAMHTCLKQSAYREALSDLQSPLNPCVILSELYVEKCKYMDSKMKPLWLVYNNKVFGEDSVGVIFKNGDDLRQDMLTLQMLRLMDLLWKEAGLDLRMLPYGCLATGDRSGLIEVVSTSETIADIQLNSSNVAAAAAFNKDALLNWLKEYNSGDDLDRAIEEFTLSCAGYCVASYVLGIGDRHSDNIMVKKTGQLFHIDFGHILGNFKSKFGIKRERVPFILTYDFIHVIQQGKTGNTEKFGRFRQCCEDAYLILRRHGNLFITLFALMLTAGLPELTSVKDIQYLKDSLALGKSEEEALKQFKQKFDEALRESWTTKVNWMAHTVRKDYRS
p110β/p85α, sequence (P27986 whole entry partner): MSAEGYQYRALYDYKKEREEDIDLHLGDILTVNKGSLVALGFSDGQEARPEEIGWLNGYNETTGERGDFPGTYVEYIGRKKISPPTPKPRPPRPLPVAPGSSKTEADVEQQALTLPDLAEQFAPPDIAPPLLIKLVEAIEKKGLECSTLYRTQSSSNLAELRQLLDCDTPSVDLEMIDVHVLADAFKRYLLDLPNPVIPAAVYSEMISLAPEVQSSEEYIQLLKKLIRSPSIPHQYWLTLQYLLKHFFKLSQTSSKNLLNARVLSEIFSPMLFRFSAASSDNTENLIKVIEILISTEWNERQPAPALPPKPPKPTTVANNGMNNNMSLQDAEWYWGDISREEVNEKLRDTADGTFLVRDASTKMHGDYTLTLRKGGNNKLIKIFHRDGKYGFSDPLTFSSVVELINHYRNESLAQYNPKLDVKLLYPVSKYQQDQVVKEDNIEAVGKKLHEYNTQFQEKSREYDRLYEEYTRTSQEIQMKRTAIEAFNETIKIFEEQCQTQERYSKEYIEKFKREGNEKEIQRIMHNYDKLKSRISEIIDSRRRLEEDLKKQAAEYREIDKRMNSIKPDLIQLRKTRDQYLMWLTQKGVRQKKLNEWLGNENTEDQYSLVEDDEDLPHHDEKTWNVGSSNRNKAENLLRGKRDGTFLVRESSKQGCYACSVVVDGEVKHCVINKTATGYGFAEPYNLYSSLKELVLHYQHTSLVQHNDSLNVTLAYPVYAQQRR
recombinant mTOR, sequence (P42345 1360-2549): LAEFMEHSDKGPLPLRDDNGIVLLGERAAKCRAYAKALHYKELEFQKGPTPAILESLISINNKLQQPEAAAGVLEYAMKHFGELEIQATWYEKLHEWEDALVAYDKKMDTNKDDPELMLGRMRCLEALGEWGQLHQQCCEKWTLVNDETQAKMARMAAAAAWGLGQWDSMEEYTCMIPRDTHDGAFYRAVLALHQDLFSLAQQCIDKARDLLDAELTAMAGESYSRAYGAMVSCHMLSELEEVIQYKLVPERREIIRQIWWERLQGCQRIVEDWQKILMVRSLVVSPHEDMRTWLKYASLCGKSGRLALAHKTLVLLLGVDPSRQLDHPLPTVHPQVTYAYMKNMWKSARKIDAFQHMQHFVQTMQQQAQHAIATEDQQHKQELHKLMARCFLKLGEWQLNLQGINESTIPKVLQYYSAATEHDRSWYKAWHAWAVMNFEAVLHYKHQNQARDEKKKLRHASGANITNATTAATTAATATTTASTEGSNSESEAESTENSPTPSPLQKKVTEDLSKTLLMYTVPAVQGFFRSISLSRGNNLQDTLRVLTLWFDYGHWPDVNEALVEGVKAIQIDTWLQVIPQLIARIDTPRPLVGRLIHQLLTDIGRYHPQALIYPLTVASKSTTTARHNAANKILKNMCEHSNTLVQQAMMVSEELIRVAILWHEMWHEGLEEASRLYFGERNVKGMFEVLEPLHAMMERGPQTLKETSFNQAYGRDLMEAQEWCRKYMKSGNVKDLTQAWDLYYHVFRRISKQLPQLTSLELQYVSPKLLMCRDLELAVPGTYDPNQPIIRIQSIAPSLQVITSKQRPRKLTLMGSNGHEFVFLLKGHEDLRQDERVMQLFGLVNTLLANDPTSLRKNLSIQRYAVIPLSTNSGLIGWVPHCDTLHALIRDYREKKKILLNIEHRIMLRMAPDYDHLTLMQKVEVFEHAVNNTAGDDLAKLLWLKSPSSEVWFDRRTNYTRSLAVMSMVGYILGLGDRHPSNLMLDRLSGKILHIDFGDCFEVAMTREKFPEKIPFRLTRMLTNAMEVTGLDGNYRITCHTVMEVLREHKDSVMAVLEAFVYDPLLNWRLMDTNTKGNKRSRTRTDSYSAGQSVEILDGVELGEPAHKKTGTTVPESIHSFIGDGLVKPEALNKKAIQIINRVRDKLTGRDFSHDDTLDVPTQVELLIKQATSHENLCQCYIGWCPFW

Row | SMILES | IC50 [6] [nM] | IC50 ([5]; read-out: PI3K β In Vitro IC50) [nM] | IC50 ([1]; read-out: PI3K α In Vitro IC50) [nM] | IC50 ([2]; read-out: PI3K δ In Vitro IC50) [nM] | IC50 ([3]; read-out: PI3K γ In Vitro IC50) [nM] | further results
1 | Nc1nc2ccc(-c3ccc4nccc(-c5ccncc5)c4c3)cc2s1 [compound 3] |  |  |  |  |  | IC50 ([1]; read-out: PI3K α IC50): < 100 nM; IC50 ([2]; read-out: PI3K δ IC50): < 1000 nM; IC50 ([3]; read-out: PI3K γ IC50): < 1000 nM; IC50 [4]: < 1000 nM
2 | Nc1ccc2cc(-c3ccc4nccc(-c5ccncc5)c4c3)ccc2n1 [compound 5] |  |  |  |  |  | IC50 ([1]; read-out: PI3K α IC50): < 1000 nM; IC50 ([2]; read-out: PI3K δ IC50): < 10000 nM; IC50 ([3]; read-out: PI3K γ IC50): < 1000 nM; IC50 [4]: < 1000 nM
3 | Cn1cc(-c2ccnc3ccc(-c4ccc5oc(N)nc5c4)cc23)cn1 [compound 26] |  |  |  |  |  | IC50 ([1]; read-out: PI3K α IC50): < 100 nM; IC50 ([2]; read-out: PI3K δ IC50): < 100 nM; IC50 ([3]; read-out: PI3K γ IC50): < 100 nM; IC50 [4]: < 1000 nM
4 | Nc1nc2cc(-c3ccc4nccn4c3)ccc2o1 [compound 40] |  |  |  |  |  | IC50 ([1]; read-out: PI3K α IC50): < 10000 nM; IC50 ([3]; read-out: PI3K γ IC50): < 10000 nM; IC50 [4]: < 10000 nM
5 | CN1CCN(C(=O)c2cnc3ccc(-c4ccc5oc(N)nc5c4)cn23)CC1 [compound 44] |  |  |  |  |  | IC50 ([1]; read-out: PI3K α IC50): < 100 nM; IC50 ([2]; read-out: PI3K δ IC50): < 10000 nM; IC50 ([3]; read-out: PI3K γ IC50): < 10000 nM; IC50 [4]: < 10000 nM
6 | N#Cc1cnc2ccc(-c3ccc4oc(N)nc4c3)cc2c1-c1ccncc1 [compound 46] |  |  |  |  |  | IC50 ([1]; read-out: PI3K α IC50): < 100 nM; IC50 ([2]; read-out: PI3K δ IC50): < 100 nM; IC50 ([3]; read-out: PI3K γ IC50): < 100 nM; IC50 [4]: < 100 nM
7 | Nc1nc2cc(-c3ccc4ncc(-c5ccnc(N6CCOCC6)c5)n4c3)ccc2o1 [compound 52] |  |  |  |  |  | IC50 ([1]; read-out: PI3K α IC50): < 100 nM; IC50 ([2]; read-out: PI3K δ IC50): < 100 nM; IC50 ([3]; read-out: PI3K γ IC50): < 100 nM; IC50 [4]: < 10000 nM
8 | Nc1nc2cc(-c3ccc4ncc(=O)[nH]c4c3)ccc2o1 [compound 72] |  |  |  |  |  | IC50 ([5]; read-out: PI3K β IC50): < 1000 nM; IC50 ([1]; read-out: PI3K α IC50): < 100 nM; IC50 ([3]; read-out: PI3K γ IC50): < 100 nM; IC50 [4]: < 1000 nM
9 | N#Cc1cnc2ccc(-c3ccc4oc(N)nc4c3)cc2c1Cl [compound 77] |  |  |  |  |  | IC50 [4]: < 1000 nM
10 | N#Cc1cnc2ccc(-c3ccc4oc(N)nc4c3)cc2c1 [compound 93] |  |  |  |  |  | IC50 ([1]; read-out: PI3K α IC50): < 1000 nM; IC50 ([3]; read-out: PI3K γ IC50): < 1000 nM; IC50 [4]: < 10000 nM
11 | CC(=O)Nc1ncc(-c2ccc3oc(N)nc3c2)s1 [compound 235] |  |  |  |  |  | IC50 [1, 7]: < 10000 nM; IC50 [2, 8]: < 10000 nM; IC50 [3, 9]: < 10000 nM; IC50 ([4]; in vitro): < 10000 nM
12 | CC(C)Oc1nc(-c2ccc3oc(N)nc3c2)cnc1N [compound 237] |  |  |  |  |  | IC50 [5, 10]: < 10000 nM; IC50 [1, 7]: < 10000 nM; IC50 [3, 9]: < 10000 nM; IC50 ([4]; in vitro): < 1000 nM
13 | Nc1nc2cc(-c3ccc4oc(N)nc4c3)ccc2o1 [compound 240] |  |  |  |  |  | IC50 [1, 7]: < 1000 nM; IC50 [2, 8]: < 10000 nM; IC50 [3, 9]: < 100 nM; IC50 ([4]; in vitro): < 10000 nM
14 | Nc1nc2cc(-c3ccc4nc(N)oc4c3)ccc2o1 [compound 241] |  |  |  |  |  | IC50 [1, 7]: < 1000 nM; IC50 [2, 8]: < 1000 nM; IC50 [3, 9]: < 100 nM; IC50 ([4]; in vitro): < 10000 nM
15 | Nc1nc2cc(-c3ccc4ncc(N5CC(n6cccn6)C5)nc4c3)ccc2o1 [compound 318] |  |  |  |  |  | IC50 [5, 10]: < 10000 nM; IC50 [1, 7]: < 100 nM; IC50 [3, 9]: < 1000 nM; IC50 ([4]; in vitro): < 1000 nM
16 | COC(=O)N1CCC(n2ncc3c(N4CCOCC4)nc(-c4ccc5oc(N)nc5c4)nc32)CC1 [compound 330] |  |  |  |  |  | IC50 [5, 10]: < 10000 nM; IC50 [1, 7]: < 1000 nM; IC50 ([4]; in vitro): < 1000 nM
17 | CN1CCN([C@@H]2CCN(c3cnc4ccc(-c5ccc6oc(N)nc6c5)cc4n3)C2)CC1 [compound 379] |  |  |  |  |  | IC50 [5, 10]: < 1000 nM; IC50 [1, 7]: < 100 nM; IC50 [2, 8]: < 10000 nM; IC50 ([4]; in vitro): < 10000 nM
18 | O=C(c1cnc2ccc(-c3cnc(Cl)c(NS(=O)(=O)c4ccccc4)c3)cn12)N1CCOCC1 [compound 451] | < 1000 | < 1000 | < 100 | < 100 | < 100 | 

Row | SMILES | IC50 [6] [nM] | IC50 ([5]; read-out: PI3K β In Vitro IC50) [nM] | IC50 ([1]; read-out: PI3K α In Vitro IC50) [nM] | IC50 ([2]; read-out: PI3K δ In Vitro IC50) [nM] | IC50 ([3]; read-out: PI3K γ In Vitro IC50) [nM] | further results
19 | O=C(c1cnc2ccc(-c3cnc(Cl)c(NS(=O)(=O)c4ccccc4F)c3)cn12)N1CCOCC1 [compound 452] | < 10000 | < 1000 | < 100 | < 100 | < 100 | 
20 | O=C(c1cnc2ccc(-c3cnc(Cl)c(NS(=O)(=O)c4ccc(F)cc4)c3)cn12)N1CCOCC1 [compound 457] | < 1000 | < 100 | < 100 | < 100 | < 100 | 
21 | O=C(c1cnc2ccc(-c3cnc(Cl)c(NS(=O)(=O)c4cccc(F)c4)c3)cn12)N1CCOCC1 [compound 458] | < 1000 | < 100 | < 100 | < 100 | < 100 | 
22 | COc1ccc(-c2ccc3ncc(C(=O)N4CCOCC4)n3c2)cc1NS(=O)(=O)c1cccnc1 [compound 462] | < 1000 | < 100 | < 100 | < 100 | < 100 | 
23 | COC1CN(C(=O)c2cnc3ccc(-c4ccc5oc(N)nc5c4)cn23)C1 [compound 467] | < 1000 | < 10000 | < 100 | < 10000 | < 100 | 
24 | Nc1nc2cc(-c3ccc4ncc(C(=O)N5CC(N6CC[C@H](O)C6)C5)n4c3)ccc2o1 [compound 469] | < 10000 | < 10000 | < 100 | < 10000 | < 1000 | 
25 | Nc1nc2cc(-c3ccc4ncc(C(=O)N5CC(N6CC[C@@H](O)C6)C5)n4c3)ccc2o1 [compound 470] | < 10000 | < 10000 | < 100 | < 10000 | < 1000 | 
26 | CN(C(=O)c1cnc2ccc(-c3ccc4oc(N)nc4c3)cn12)C1CCOCC1 [compound 472] | < 10000 | < 10000 | < 100 | < 10000 | < 1000 | 
27 | Nc1nc2cc(-c3ccc4ncc(C(=O)N5CC[C@H](n6cccn6)C5)n4c3)ccc2o1 [compound 478] | < 1000 | < 10000 | < 100 | < 1000 | < 1000 | 
28 | C[C@@H]1CN(C2CN(C(=O)c3cnc4ccc(-c5ccc6oc(N)nc6c5)cn34)C2)CCN1C [compound 508] | < 1000 | < 10000 | < 100 | < 1000 | < 10000 | 
29 | C[C@H]1CN(C2CN(C(=O)c3cnc4ccc(-c5ccc6oc(N)nc6c5)cn34)C2)CCN1 [compound 510] | < 10000 | < 10000 | < 100 | < 1000 | < 10000 | 
30 | C[C@@H]1CN(C2CN(C(=O)c3cnc4ccc(-c5ccc6oc(N)nc6c5)cn34)C2)CCN1 [compound 511] | < 10000 | < 10000 | < 100 | < 1000 | < 10000 | 
31 | C[C@H]1CN(C2CN(C(=O)c3cnc4ccc(-c5ccc6oc(N)nc6c5)cn34)C2)CCN1C [compound 512] | < 1000 | < 10000 | < 100 | < 1000 | < 10000 | 
32 | CC1(C)CN(C2CN(C(=O)c3cnc4ccc(-c5ccc6oc(N)nc6c5)cn34)C2)CCN1 [compound 515] | < 1000 | < 10000 | < 100 | < 100 | < 1000 | 
33 | COc1ncc(-c2ccc3ncn(C4CCN(C(C)C)CC4)c(=O)c3c2)cc1NS(=O)(=O)c1ccccc1 [compound 522] | < 1000 | < 100 | < 100 | < 100 | < 100 | 
34 | CC(C)N1CCC(n2cnc3ccc(-c4cnc(Cl)c(NS(C)(=O)=O)c4)cc3c2=O)CC1 [compound 523] | < 10000 | < 1000 | < 100 | < 100 | < 100 | 
35 | COc1ncc(-c2ccc3ncn(C4CCN(C)CC4)c(=O)c3c2)cc1NS(=O)(=O)c1ccccc1 [compound 524] | < 1000 | < 100 | < 100 | < 100 | < 1000 | 
